Laboratory results reported in patent publication US20090311344A1, “Dosing Regimen” (priority 2008, published 2009).

Assay: Multiple dose study in cancer subjects: treatment-emergent (serious) adverse events
Procedure: 46 subjects with cancer receiving platinum-based therapies were enrolled into 3 cohorts (N=16 in Cohort 1, 14 in Cohort 2, and 16 in Cohort 3). The subjects received the TPO mimetic peptide compound or placebo within 2 hours prior to the platinum-based chemotherapy on Day 1 of the first 2 cycles with a 21-day interval between each cycle. In addition to the Day 1 administration, gemcitabine administration was permitted on Day 8 of each cycle. Other chemotherapy medications were limited to dosing on Day 1 of each cycle only. Subjects were followed up for a total of 4 cycles of chemotherapy. Chemotherapy regimen continued beyond the first 4 cycles as per standard of care therapy. In the first cohort, 12 subjects received 1.5 μg/kg the TPO mimetic peptide compound and 4 subjects received placebo. In the second cohort 10 subjects received 3.0 μg/kg the TPO mimetic peptide compound and 4 subjects received placebo. In the third cohort, 12 subjects received 2.25 μg/kg the TPO mimetic peptide compound and 4 subjects received placebo. […] Therefore, a third cohort at a lower dose (2.25 μg/kg) was added to collect additional safety, tolerability, PD, and PK data.

Methoxypolyethyleneglycol20000-propionyl-L-Isoleucyl-L-Glutamyl-Glycyl-L-Prolyl-L-Threonyl-L-Leucyl-L-Arginyl-L-Glutaminyl-L-2-Naphthylalanyl-L-Leucyl-L-Alanyl-L-Alanyl-L-Arginyl-Sarcosyl-Ne-(methoxypolyethyleneglycol20000-propionyl-L-Isoleucyl-L-Glutamyl-Glycyl-L-Prolyl-L-Threonyl-L-Leucyl-L-Arginyl-L-Glutaminyl-L-2-Naphthylalanyl-L-Leucyl-L-Alanyl-L-Alanyl-L-Arginyl-Sarcosyl-)-Lysinamide [TPO mimetic peptide compound]
Adverse event: Fatigue (3.0 ug/kg, n of N = 10): 4
Adverse event: Febrile neutropenia (3.0 ug/kg, n of N = 10): 0
Adverse event: Folliculitis (3.0 ug/kg, n of N = 10): 0
Adverse event: Gastrointestinal disorders (3.0 ug/kg, n of N = 10): 6
Adverse event: General disorders and administration site conditions (3.0 ug/kg, n of N = 10): 6
Adverse event: General physical health deterioration (3.0 ug/kg, n of N = 10): 0
Adverse event: Haematocrit decreased (3.0 ug/kg, n of N = 10): 1
Adverse event: Headache (3.0 ug/kg, n of N = 10): 1
Adverse event: Hemorrhoids (3.0 ug/kg, n of N = 10): 0
Adverse event: Hepatobiliary disorders (3.0 ug/kg, n of N = 10): 0
Adverse event: Hiccups (3.0 ug/kg, n of N = 10): 0
Adverse event: Hyperbilirubinaemia (3.0 ug/kg, n of N = 10): 0
Adverse event: Hypersensitivity (3.0 ug/kg, n of N = 10): 1
Adverse event: Hypertension (3.0 ug/kg, n of N = 10): 0
Adverse event: Hypoalbuminaemia (3.0 ug/kg, n of N = 10): 0
Adverse event: Hypocalcaemia (3.0 ug/kg, n of N = 10): 0
Adverse event: Hypokalaemia (3.0 ug/kg, n of N = 10): 0
Adverse event: Hypomagnesaemia (3.0 ug/kg, n of N = 10): 0
Adverse event: Hyponatraemia (3.0 ug/kg, n of N = 10): 0
Adverse event: Hypophosphataemia (3.0 ug/kg, n of N = 10): 0
Adverse event: Immune system disorders (3.0 ug/kg, n of N = 10): 1
Adverse event: Insomnia (3.0 ug/kg, n of N = 10): 1
Adverse event: Investigations (3.0 ug/kg, n of N = 10): 4
Adverse event: Leukocytosis (3.0 ug/kg, n of N = 10): 1
Adverse event: Leukopenia (3.0 ug/kg, n of N = 10): 2
Adverse event: Lung abscess (3.0 ug/kg, n of N = 10): 0
Adverse event: Lymphopenia (3.0 ug/kg, n of N = 10): 0
Adverse event: Metabolism and nutrition disorders (3.0 ug/kg, n of N = 10): 3
Adverse event: Mucosal inflammation (3.0 ug/kg, n of N = 10): 0
Adverse event: Musculoskeletal and connective tissue disorders (3.0 ug/kg, n of N = 10): 2
Adverse event: Nausea (3.0 ug/kg, n of N = 10): 2
Adverse event: Neoplasms benign, malignant and unspecified (incl cysts and polyps) (3.0 ug/kg, n of N = 10): 0
Adverse event: Nervous system disorders (3.0 ug/kg, n of N = 10): 2
Adverse event: Neuropathy peripheral (3.0 ug/kg, n of N = 10): 0
Adverse event: Neutropenia (3.0 ug/kg, n of N = 10): 3
Adverse event: Oedema (3.0 ug/kg, n of N = 10): 1
Adverse event: Oedema peripheral (3.0 ug/kg, n of N = 10): 0
Adverse event: Pain (3.0 ug/kg, n of N = 10): 0
Adverse event: Pain in extremity (3.0 ug/kg, n of N = 10): 1
Adverse event: Paraesthesia (3.0 ug/kg, n of N = 10): 1
Adverse event: Peripheral motor neuropathy (3.0 ug/kg, n of N = 10): 0
Adverse event: Peripheral sensory neuropathy (3.0 ug/kg, n of N = 10): 0
Adverse event: Platelet count decreased (3.0 ug/kg, n of N = 10): 0
Adverse event: Psychiatric disorders (3.0 ug/kg, n of N = 10): 1
Adverse event: Pyrexia (3.0 ug/kg, n of N = 10): 2
Adverse event: Rash (3.0 ug/kg, n of N = 10): 0
Adverse event: Renal and urinary disorders (3.0 ug/kg, n of N = 10): 0
Adverse event: Respiratory failure (3.0 ug/kg, n of N = 10): 0
Adverse event: Respiratory, thoracic and mediastinal disorders (3.0 ug/kg, n of N = 10): 1
Adverse event: Skin and subcutaneous tissue disorders (3.0 ug/kg, n of N = 10): 3
Adverse event: Stomatitis (3.0 ug/kg, n of N = 10): 0
Adverse event: Tachycardia (3.0 ug/kg, n of N = 10): 0
Adverse event: Thrombocythaemia (3.0 ug/kg, n of N = 10): 0
Adverse event: Thrombocytopenia (3.0 ug/kg, n of N = 10): 2
Adverse event: Tinnitus (3.0 ug/kg, n of N = 10): 1
Adverse event: Vascular disorders (3.0 ug/kg, n of N = 10): 0
Adverse event: Vomiting (3.0 ug/kg, n of N = 10): 2
Adverse event: Weight decreased (3.0 ug/kg, n of N = 10): 0
Serious adverse event: Abdominal pain (3.0 ug/kg, n of N = 10): 0
Serious adverse event: Acute myocardial infarction (3.0 ug/kg, n of N = 10): 0
Serious adverse event: Anorexia (3.0 ug/kg, n of N = 10): 0
Serious adverse event: Atrial fibrillation (3.0 ug/kg, n of N = 10): 0
Serious adverse event: Blood and lymphatic system disorders (3.0 ug/kg, n of N = 10): 0
Serious adverse event: Blood creatinine increased (3.0 ug/kg, n of N = 10): 0
Serious adverse event: Cardiac disorders (3.0 ug/kg, n of N = 10): 0
Serious adverse event: Cardiac failure (3.0 ug/kg, n of N = 10): 0
Serious adverse event: Dehydration (3.0 ug/kg, n of N = 10): 0
Serious adverse event: Dyspnoea (3.0 ug/kg, n of N = 10): 0
Serious adverse event: Fatigue (3.0 ug/kg, n of N = 10): 0
Serious adverse event: Febrile neutropenia (3.0 ug/kg, n of N = 10): 0
Serious adverse event: Gastrointestinal disorders (3.0 ug/kg, n of N = 10): 0
Serious adverse event: General disorders and administration site conditions (3.0 ug/kg, n of N = 10): 0
Serious adverse event: Hyponatraemia (3.0 ug/kg, n of N = 10): 0
Serious adverse event: Investigations (3.0 ug/kg, n of N = 10): 0
Serious adverse event: Lung abscess (3.0 ug/kg, n of N = 10): 0
Serious adverse event: Metabolism and nutrition disorders (3.0 ug/kg, n of N = 10): 0
Serious adverse event: Nausea (3.0 ug/kg, n of N = 10): 0
Serious adverse event: Neutropenia (3.0 ug/kg, n of N = 10): 0
Serious adverse event: Pain (3.0 ug/kg, n of N = 10): 0
Serious adverse event: Pyrexia (3.0 ug/kg, n of N = 10): 0
Serious adverse event: Respiratory failure (3.0 ug/kg, n of N = 10): 0
Serious adverse event: Respiratory, thoracic and mediastinal disorders (3.0 ug/kg, n of N = 10): 0
Serious adverse event: Thrombocythaemia (3.0 ug/kg, n of N = 10): 0
Serious adverse event: Thrombocytopenia (3.0 ug/kg, n of N = 10): 0
Serious adverse event: Vomiting (3.0 ug/kg, n of N = 10): 0
Total no. subjects WITH ADVERSE EVENTS (3.0 ug/kg, n of N = 10): 9
Total no. subjects WITH SERIOUS ADVERSE EVENTS (3.0 ug/kg, n of N = 10): 0
relation of adverse events to dose (1.5, 2.25, 3.0 μg/kg): did not appear to be related to increasing doses
relatedness of all other SAEs to the compound (human, in vivo): unrelated
relatedness of the SAE thrombocythemia to the compound (one subject): very likely
